Source: PMC5442318, “Hundreds of dual-stage antimalarial molecules discovered by a functional gametocyte screen” (Nature Communications, 2017)
Where two headings read alike, the source gives them in different places.

Experiments:
[1] = system: P. falciparum stages IV–V gametocytes; assay: Gametocytocidal ATP-depletion assay (gametocyte ATP bioluminescence); assay type: cell-based, Plasmodium falciparum
Experimental: In parallel, the set of confirmed hits from the Pf FGAA screen was cross-compared in the gametocyte ATP-depletion assay, at 2 μM single concentration (Supplementary Data 1). This assay monitors ATP levels as surrogate of gametocyte viability.
‘Viability' of mature gametocytes was determined using the gametocyte ATP bioluminiscence assay. Briefly, stages IV–V gametocyte cultures were double-purified by differential sedimentation followed by magnetic isolation. Then, parasites (50 μl per well containing 12,500 gametocytes) were added to compound pre-dispensed 384-well plates (781091, Greiner Bio-One) and incubated at 37 °C for 48 h (3% O2, 5% CO2 and 92% N2). BacTiter-Glo kit (G8231, Promega) was used to determine the ATP levels of ‘live' parasites according to the manufacturer's instructions. After reagent addition (50 μl per well), luminescence of the plates was measured using a microplate reader (HTS counter Victor, Wallac).

[2] = system: P. falciparum asexual blood stages; conditions: read-out: Pf Asexual blood stages XC50, cited from earlier work
[3] = system: P. falciparum stage V female gametocytes; assay: P. falciparum female gametocyte activation assay (Pf FGAA), 24 h or 48 h preincubation, Pfs25 expression readout; assay type: cell-based, Plasmodium falciparum NF54; conditions: mean, read-out: Gametocytes mean Pf FGAA IC50
Experimental: P. falciparum NF54 (originally isolated from an imported malaria case in the Netherlands in the 1980s; BEI Resources, cat. no. MRA-1000) asexual-stage culture was performed as described by Trager and Jensen[37]. Cultures synchronized at the ring stage were used to start gametocyte cultures (day 0) at 1% parasitaemia and 4% haematocrit in 200 ml final volume using culture bottles (Nalgene 3110-42, Thermo Scientific). Complete culture medium (RPMI 1640 supplemented with 25 mM HEPES, 50 μg ml^−1 hypoxanthine, 2 g l^−1 NaHCO3 and 10% pooled human male type A+ serum) was totally replaced daily for 14 days without fresh erythrocyte addition. Human serum was obtained from Interstate Blood Bank, A^+ serotype; no aspirin 2 h before drawing and no antimalarials 2 weeks before drawing. To ensure a stable temperature at 37 °C, which is crucial for gametocyte production and maturation, pre-warmed medium and a slide warmer (XH-2001, Premiere) were used. Under these conditions, parasitaemia reaches a peak of asexual stages on days 4–5, and the first gametocytes are differentiated in culture on day 6. Sexual-stage development was monitored microscopically by Giemsa-stained thin blood smears at day 7 (mainly asexual stages and stages I to III gametocytes) and day 14 (stages IV and V gametocytes).
Cultures showing mainly stage V gametocytes were purified by differential sedimentation as previously reported. The gametocyte concentration was adjusted to plate 8,000 gametocytes per well (100 μl per well) in 384-well poly-D-lysine coated plates (781946, Greiner Bio-One) containing the compounds to test. […] Female gametocyte activation was then triggered by temperature drop and addition of xanthurenic acid (D120804, Sigma) as previously described. To detect female gametes, monoclonal anti-Pfs25 antibody[38] 4B7 (BEI Resources (formerly MR4), cat. no. MRA-315) conjugated to the Cy3 fluorochrome (GE Healthcare) was added to ookinete medium (RPMI 1640 supplemented with 25 mM HEPES, 50 μg ml^−1 hypoxanthine, 2 g l^−1 NaHCO3, 100 μM xanthurenic acid and 20% human serum) at a final concentration of 0.5 μg ml^−1. Activated cultures were then kept at 26 °C for 24 h protected from light, and image acquisition was performed in the Opera High-Content Screening System (PerkinElmer). Using × 10 air objective, five images per well were taken using 532 nm excitation. Images were analysed with a Columbus image data storage and analysis system (PerkinElmer) based on a script specifically designed for this assay that considers size, roundness and intensity of fluorescence of the female activated gametocytes.
Compounds were dissolved in 100% DMSO and dispensed in the 384-well plates using an Echo-CRS liquid handler. Compounds were tested in 2–3 independent experiments. […] Based on that, Z′ factor was calculated for each plate and only those ones with values higher than 0.4 were considered acceptable for data analysis.
Assay performance statistics, such as signal to background ratio, Z′ and robust 3 s.d. activity cut-off were calculated using templates in ActivityBase XE (IDBS, Guilford, Surrey, UK). Hit population analysis and visualization were conducted using Spotfire DecisionSite (Spotfire, Inc., Somerville, MA, USA). The pIC50 (−log IC50) values were obtained using the ActivityBase XE nonlinear regression function in the full curve analysis bundle.

HepG2 cells = assay: HepG2 cytotoxicity assay; assay type: cell-based
Experimental: After incubation, plates and CellTiter-Glo Reagent (G7571, Promega) were equilibrated at room temperature for 30 min before proceeding to develop the luminescent signal. Using a Multidrop combi dispenser, 25 μl per well of the signal developer were added to the plates and after 10 min at room temperature for stabilization, plates were read on the ViewLux system (Perkin Elmer).

[4] = TCAMS asexual blood stage data, ref 1 (Gamo, F. J. et al., Nature 465, 305-310, 2010)
[5] = P. falciparum female gametocytes
[6] = TCAMS data, ref 1 (Gamo et al., 2010)

CNC(=S)NN=C(C)c1ccccn1 [TCMDC-123475]
Gametocytes mean ATP inhibition at 2µM [1]: 81.04%
IC50 [2, 4]: 270 nM
IC50 [3, 5]: 14 nM

COc1ccc(C[C@H](N)C(=O)N[C@H]2[C@@H](O)[C@H](n3cnc4c(N(C)C)ncnc43)O[C@@H]2CO)cc1 [TCMDC-123493]
inhibition at 2 µM ([1]; Plasmodium falciparum, mean): 63.8%
IC50 [2, 4]: 170 nM
Selectivity ratio (HepG2 cells; HepG2 TOX50 versus Pf FGAA IC50): 6.24
HepG2 cells mean TOX50 (HepG2 cells; HepG2 cells): 1.80 µM
IC50 ([3]; Plasmodium falciparum, P. falciparum female gametocytes): 290 nM

Cc1ccc(-c2nc3cc(NC(=O)c4ccc([N+](=O)[O-])o4)ccc3o2)cc1Cl [TCMDC-123657]
Gametocytes mean ATP inhibition at 2µM [1]: 8.99%
IC50 [2, 4]: 160 nM
HepG2 cells mean TOX50 (HepG2 cells; HepG2 cells): 1.72 µM
IC50 [3, 5]: 1350 nM

CCN(CC)CCCn1c(N)c(-c2nc3ccccc3[nH]2)c2nc(C#N)c(C#N)nc21 [TCMDC-123680]
Gametocytes mean ATP inhibition at 2µM [1]: 86.44%
IC50 [2, 4]: 270 nM
HepG2 cells mean TOX50 (HepG2 cells; HepG2 cells): 4.27 µM
IC50 [3, 5]: 740 nM

Cc1ccnc(NC(c2ccc(Cl)c([N+](=O)[O-])c2)c2ccc3cccnc3c2O)c1 (centres unmarked) [TCMDC-123691]
Gametocytes mean ATP inhibition at 2µM [1]: 95.66%
IC50 [2, 4]: 930 nM
HepG2 cells mean TOX50 (HepG2 cells; HepG2 cells): 23.45 µM
IC50 [3, 5]: 1480 nM

NC(=Nc1nc(-c2ccccn2)cc2ccccc12)c1cccc(Cl)c1 [TCMDC-123745]
Gametocytes mean ATP inhibition at 2µM [1]: 49.04%
IC50 [2, 4]: 310 nM
IC50 [3, 5]: 50 nM

OC1CCN(c2cc(-c3ccccn3)nc(-c3ccccn3)n2)CC1 [TCMDC-123786]
Gametocytes mean ATP inhibition at 2µM [1]: 104.88%
IC50 [2, 4]: 1050 nM
HepG2 cells mean TOX50 (HepG2 cells; HepG2 cells): 14.14 µM
IC50 [3, 5]: 1540 nM

COc1ccc(-c2csc3ncnc(Cl)c23)cc1 [TCMDC-123805]
Gametocytes mean ATP inhibition at 2µM [1]: -0.54%
IC50 [2, 4]: 780 nM
HepG2 cells mean TOX50 (HepG2 cells; HepG2 cells): 0.55 µM
IC50 [3, 5]: 1460 nM

COc1cc2nc(N3CCN(c4nc(N)c5cc(OC)c(OC)cc5n4)CC3)nc(N)c2cc1OC [TCMDC-123865]
Gametocytes mean ATP inhibition at 2µM [1]: 90.91%
IC50 [2, 4]: 150 nM
HepG2 cells mean TOX50 (HepG2 cells; HepG2 cells): 52.49 µM
IC50 [3, 5]: 580 nM

CCCC(=O)NC(c1ccc(C(C)C)cc1)c1ccc2cccnc2c1O (centres unmarked) [TCMDC-123884]
Gametocytes mean ATP inhibition at 2µM [1]: 63.50%
IC50 [2, 4]: 930 nM
HepG2 cells mean TOX50 (HepG2 cells; HepG2 cells): >100 µM
IC50 [3, 5]: 1540 nM

OCCN1CCN(c2ccc(Nc3ccnc4cc5ccccc5cc34)cc2)CC1 [TCMDC-123915]
Gametocytes mean ATP inhibition at 2µM [1]: 2.56%
IC50 [2, 4]: 40 nM
HepG2 cells mean TOX50 (HepG2 cells; HepG2 cells): 5.43 µM
IC50 [3, 5]: 3340 nM

Cc1ccnc(NC(c2cccc(Cl)c2Cl)c2ccc3cccnc3c2O)c1 (centres unmarked) [TCMDC-123997]
Gametocytes mean ATP inhibition at 2µM [1]: 90.58%
IC50 [2, 4]: 1000 nM
HepG2 cells mean TOX50 (HepG2 cells; HepG2 cells): 45.69 µM
IC50 [3, 5]: 1910 nM

[O-][s+]1c(Cl)c(-c2ccc(Cl)cc2)c2ccc(Cl)cc21 (centres unmarked) [TCMDC-124011]
Gametocytes mean ATP inhibition at 2µM [1]: 87.64%
IC50 [2, 4]: 990 nM
HepG2 cells mean TOX50 (HepG2 cells; HepG2 cells): 11.35 µM
IC50 [3, 5]: 36.6 nM

Cc1cc(I)ccc1Nc1nc2nonc2nc1Nc1ccc(I)cc1C [TCMDC-124083]
Gametocytes mean ATP inhibition at 2µM [1]: 6.94%
IC50 [2, 4]: 510 nM
HepG2 cells mean TOX50 (HepG2 cells; HepG2 cells): 0.93 µM
IC50 [3, 5]: 1080 nM

FC(F)(F)c1cccc(Nc2nc3ccccc3nc2Nc2cccc(C(F)(F)F)c2)c1 [TCMDC-124162]
Gametocytes mean ATP inhibition at 2µM [1]: 20.50%
IC50 [2, 4]: 140 nM
HepG2 cells mean TOX50 (HepG2 cells; HepG2 cells): 17.68 µM
IC50 [3, 5]: 2400 nM

c1ccc(-c2csc(Nc3nc4cc5c(cc4s3)OCO5)n2)nc1 [TCMDC-124550]
Gametocytes mean ATP inhibition at 2µM [1]: 56.70%
IC50 [2, 4]: 580 nM
IC50 [3, 5]: 32.3 nM

Oc1c(C(Nc2nc3ccccc3s2)c2ccccc2)ccc2cccnc12 (centres unmarked) [TCMDC-125565]
Gametocytes mean ATP inhibition at 2µM [1]: 91.61%
IC50 [2, 4]: 650 nM
IC50 [3, 5]: 3030 nM

S=C(NN=Cc1ccccn1)NC1CC2C=CC1C2 (centres unmarked) [TCMDC-125752]
Gametocytes mean ATP inhibition at 2µM [1]: 74.38%
IC50 [2, 4]: 720 nM
IC50 [3, 5]: 15.3 nM

Cc1ccc(Nc2nc(-c3ccccn3)cs2)nc1 [TCMDC-125854]
Gametocytes mean ATP inhibition at 2µM [1]: 82.15%
IC50 [2, 4]: 750 nM
IC50 [3, 5]: 27.3 nM

Cc1c(Cl)cccc1S(=O)(=O)Nc1ccc(CCN2CCC(N)CC2)cc1.Cl [TCMDC-134083]
Gametocytes mean ATP inhibition at 2µM [1]: -1.32%
IC50 [2, 4]: 1460 nM
HepG2 cells mean TOX50 (HepG2 cells; HepG2 cells): 13.86 µM

Cc1cc(C(=O)Nc2nc(-c3ccccn3)nc3ccsc23)no1 [TCMDC-135243]
Gametocytes mean ATP inhibition at 2µM [1]: 53.53%
IC50 [2, 4]: 810 nM
IC50 [3, 5]: 350 nM

CCn1c(-c2nonc2N)nc2c(-c3cccc(NC(=O)NC45CC6CC(CC(C6)C4)C5)c3)ncc(OCCCN)c21.O=C(O)C(F)(F)F [TCMDC-136246]
Gametocytes mean ATP inhibition at 2µM (%) [1]: -16.91%
HepG2 cells mean TOX50 (HepG2 cells): 6.10 µM
IC50 [3]: 1360 nM

Cl.c1ccc2c(Nc3ccc(OCCOCCOc4ccc(Nc5c6ccccc6nc6ccccc56)cc4)cc3)c3ccccc3nc2c1 [TCMDC-137355]
Gametocytes mean ATP inhibition at 2µM (%) [1]: -18.54%
IC50 [2, 6]: 280 nM
HepG2 cells mean TOX50 (HepG2 cells): 5.59 µM

CC(=NNC(=S)NC(C)(C)C)c1ccccn1 [TCMDC-137783]
Gametocytes mean ATP inhibition at 2µM (%) [1]: 84.85%
IC50 [2, 6]: 160 nM
IC50 [3]: 40 nM

CC(=NNC(S)=NCc1ccco1)c1ccccn1 [TCMDC-137906]
Gametocytes mean ATP inhibition at 2µM (%) [1]: 77.01%
IC50 [2, 6]: 250 nM
IC50 [3]: 20 nM

CCN(CC)CC(O)CNc1c2ccc([N+](=O)[O-])cc2nc2cc(OC)c(OC)cc12.Cl (centres unmarked) [TCMDC-138079]
Gametocytes mean ATP inhibition at 2µM (%) [1]: 44.60%
IC50 [2, 6]: 270 nM
IC50 [3]: 3890 nM

COc1ccc(CNC(=O)c2cnc3c(O)cccc3c2Nc2cccc(NC(=O)c3ccc(Cl)c(Cl)c3)c2)cc1.O=C(O)C(F)(F)F [TCMDC-139607]
Gametocytes mean ATP inhibition at 2µM (%) [1]: 90.02%
IC50 [2, 6]: 600 nM
IC50 [3]: 1600 nM

CC(C)(C)c1ccc(C(=O)Nc2cccc(Nc3c(C(=O)NCc4cccc(C(F)(F)F)c4)cnc4c(O)cccc34)c2)cc1.O=C(O)C(F)(F)F [TCMDC-139610]
Gametocytes mean ATP inhibition at 2µM (%) [1]: 83.54%
IC50 [2, 6]: 1090 nM
IC50 [3]: 3630 nM

COc1ccc(CNC(=O)c2cnc3c(O)cccc3c2Nc2cccc(NC(=O)c3ccc(-c4ccccc4)cc3)c2)cc1.O=C(O)C(F)(F)F [TCMDC-139611]
Gametocytes mean ATP inhibition at 2µM (%) [1]: 88.95%
IC50 [2, 6]: 940 nM
IC50 [3]: 1820 nM

CC(Cc1ccc(CNC(=O)NCc2ccc(CC(C)NCCc3cccc(Cl)c3)cc2)cc1)NCCc1cccc(Cl)c1 (centres unmarked) [TCMDC-139648]
Gametocytes mean ATP inhibition at 2µM (%) [1]: 12.15%
IC50 [2, 6]: 690 nM
HepG2 cells mean TOX50 (HepG2 cells): 3.94 µM
